Values after ≈ are worked out from the molar mass of the structure shown. Some results are limits rather than exact numbers.

The conditions of this data set: buffer; pH 7.4; 200.0 µM.
`O=C(NCc1ccco1)c1ccccc1O` came in with a kinetic solubility of 22.9 µg/mL (≈ 105 µM).
The compound `CC(NC(=S)NC(=O)c1ccccc1Br)c1ccccc1` (stereo not given) yielded a kinetic solubility of 4.9 µg/mL (≈ 13.5 µM).
In the case of `O=c1[nH]c(=S)[nH]c(O)c1/C=C1/C=c2ccccc2=N1`, the solubility (kinetic) is 1.8 µg/mL (≈ 6.63 µM).
Take `O=C(CN1C(=O)c2ccccc2S1(=O)=O)NCc1ccco1`: the kinetic solubility is greater than 48 µg/mL.
For `COc1cc(SC)ccc1C(=O)OCC(=O)N1CC(=O)Nc2ccccc21` the value was 17.6 µg/mL (≈ 45.5 µM); for `O=C(O)CN1C(=O)/C(=C/c2ccc(SCc3ccccc3)o2)SC1=S`, 21.2 µg/mL (≈ 54.2 µM).
In turn, `CN(C)c1ccc(C(=O)NCc2ccc3c(c2)OCO3)cc1` showed a solubility (kinetic) of 10.2 µg/mL (≈ 34.2 µM).
For `COc1ccc(S(=O)(=O)N2CCOCC2)cc1NC(=O)COc1ccc2ccc(=O)oc2c1` the value was 6 µg/mL (≈ 12.6 µM); for `COCCNC(=S)N(CCc1c(C)[nH]c2ccccc12)Cc1ccco1`, 27.9 µg/mL (≈ 75.1 µM); for `Nc1cccnc1Oc1ccccc1F`, greater than 30.6 µg/mL.
Turning to `CN(C)c1ccc2c3c(ccc(N(C)C)c13)C(=O)OC2`, the solubility (kinetic) turned out to be 36.6 µg/mL (≈ 135 µM).
For `Cc1ccc2nc(NCC(N)=O)nc(-c3ccccc3)c2c1` the value was 1.4 µg/mL (≈ 4.79 µM); for `C=CCn1c(O)c(C=Nc2ccc(F)cc2)c(=O)[nH]c1=O`, 19.3 µg/mL (≈ 66.7 µM); for `COc1ccc(NC(=O)c2scc(S(=O)(=O)C(C)C)c2N)cc1`, 45.5 µg/mL (≈ 128 µM).
For `O=C(NC1CCCC1)c1cc(-c2ccc(Cl)cc2)on1` the value was less than 0.3 µg/mL.
For `O=C(Cc1ccccc1)c1c[nH]c(C(=O)NCCCn2ccnc2)c1` the value was greater than 50.5 µg/mL.
The compound `Cc1cc(NC(=O)c2cccs2)ncc1NC(=O)C(C)C` returned a solubility (kinetic) greater than 45.5 µg/mL.
Compound `CC(=O)Nc1ccc(C(F)(F)F)cc1Cl` displayed a kinetic solubility of 23.1 µg/mL (≈ 97.2 µM).
For `Cc1cc([N+](=O)[O-])c2ccccc2[n+]1[O-]` the value was greater than 30.6 µg/mL.
For `COc1ccc(CCNC(=O)c2ccc3ccccc3n2)cc1` the value was 22.2 µg/mL (≈ 72.5 µM); for `CC1=NOC(=O)/C1=C\c1ccc2c(c1)OCO2`, 32 µg/mL (≈ 138 µM); for `CCOC(=O)c1c(C)[nH]c(C(=O)OCC(=O)NCc2ccc(C)cc2)c1C`, 2.6 µg/mL (≈ 6.98 µM).
Compound `Cc1cccc(NC(=O)NC2CCCc3ccccc32)c1` (stereo not given) had a solubility (kinetic) of 0.7 µg/mL (≈ 2.5 µM).
For `COc1ccc(S(=O)(=O)NCC(=O)NC2CC2)cc1OC` the value was greater than 47.2 µg/mL.
With `COC(=O)c1cc(S(=O)(=O)N2CCCCC2C)c[nH]1` (stereo not given), the kinetic solubility was greater than 43 µg/mL.
The compound `O=C(O)C1c2ccccc2C(=O)N(Cc2ccc(F)cc2)C1c1ccncc1` (stereo not given) showed a solubility (kinetic) greater than 56.5 µg/mL.
On to `CC(CN1CCOCC1)OC(=O)c1ccc(Cl)cc1Cl.Cl` (stereo not given), for which the kinetic solubility is 48.9 µg/mL.
`C(=N\NC1=NCCN1)/c1ccncc1.Cl` displayed a kinetic solubility greater than 39.3 µg/mL.
The compound `Cc1ccc2nc(Cl)c(/C=C/C(=O)c3ccco3)cc2c1` showed a solubility (kinetic) of 15.4 µg/mL (≈ 51.7 µM).
Take `COc1ccc(NS(=O)(=O)c2ccc3c(c2)CCO3)cc1`: the solubility (kinetic) came out at 45 µg/mL (≈ 147 µM).
For `COc1ccc(/C=C(\C#N)C(=O)Nc2ccccn2)cc1` the value was 3.5 µg/mL (≈ 12.5 µM).
In turn, `S=c1[nH]ccn1CCc1ccccc1` showed a solubility (kinetic) of 22.7 µg/mL (≈ 111 µM).
For `CN(C(=O)COC(=O)c1ccc(Cl)cc1N)C1CCCCC1` the value was 0.7 µg/mL (≈ 2.16 µM); for `COc1ccc(Nc2nc(N)c([N+](=O)[O-])c(NC3CCCCC3)n2)cc1`, 0.2 µg/mL (≈ 0.558 µM).
`Cc1ccc(C(C)NC(=O)Cc2cccs2)c(C)c1` (stereo not given): the kinetic solubility was 34.4 µg/mL (≈ 126 µM).
Compound `CC(=O)Nc1ccc(N2C(=O)CSC2c2ccccc2[N+](=O)[O-])cc1` (stereo not given) displayed a solubility (kinetic) of 41.1 µg/mL (≈ 115 µM).
In the case of `COc1ccc(OC)c(S(=O)(=O)N2CCN(C)CC2c2ccccc2)c1` (stereo not given), the solubility (kinetic) was greater than 56.5 µg/mL.
The compound `C=CCn1cccc(C(=O)Nc2ccc(Cl)cc2)c1=O` gave a solubility (kinetic) of 3.4 µg/mL (≈ 11.8 µM).
`O=C(c1cc(Br)c[nH]1)N1CCSCC1` had a solubility (kinetic) of 29.6 µg/mL (≈ 108 µM).
On to `COc1ccccc1CSc1nc2c(c(=O)n(C)c(=O)n2C)n1C`, for which the kinetic solubility was 9.8 µg/mL (≈ 28.3 µM).
`CCCNC(=O)c1ccc2c(c1)ncn2-c1cc(C)cc(C)c1` yielded a kinetic solubility of 38.4 µg/mL (≈ 125 µM).
For `Cc1ccc(-c2cc(C(=O)N3CCC(C)CC3)c3ccccc3n2)cc1` the value was 6.6 µg/mL (≈ 19.2 µM).
For `Cc1ccc(Cl)c(OCC(=O)Nc2cccnc2)c1` the value was 15.6 µg/mL (≈ 56.4 µM); for `COC(=O)C1SCCN1S(=O)(=O)c1ccc(Cl)cc1` (stereo not given), greater than 48.3 µg/mL.
On to `COc1ccc(N2C(=O)NC3CC2(C)Oc2ccccc23)cc1` (stereo not given), for which the kinetic solubility was found to be 44.4 µg/mL (≈ 143 µM).
For `COc1cccc(C(=O)O/N=C(\N)c2ccccn2)c1` the value was greater than 40.7 µg/mL; for `COc1cc(C(=O)NCC(=O)OCc2ccc(F)cc2)cc(OC)c1OC`, 11.8 µg/mL (≈ 31.3 µM); for `O=c1c2ccccc2nc(-c2ccccc2)n1O`, greater than 35.7 µg/mL.
For `O=C(Nc1ccccc1)/C(=C1\CCCN1)[N+](=O)[O-]`, the kinetic solubility was 29.6 µg/mL (≈ 120 µM).
For `O=C(Cn1ccccc1=O)NCc1ccc(F)cc1` the value was 24.1 µg/mL (≈ 92.6 µM); for `COc1ccccc1NC(=O)COC(=O)C12CC3CC(CC(Br)(C3)C1)C2`, 5.5 µg/mL (≈ 13 µM); for `O=C(NCc1ccc(Cl)cc1)c1csc(-c2cccnc2)n1`, 37.9 µg/mL (≈ 115 µM).
The compound `Cc1ccc(S(=O)(=O)NC(=O)c2cccc(C)c2)cc1` had a solubility (kinetic) greater than 43.4 µg/mL.
On to `COc1ccc2c(C#N)c3ccccn3c2c1`, for which the solubility (kinetic) came to 0.9 µg/mL (≈ 4.05 µM).
Consider `CC1(C)OC2C(O1)[C@@H](CO)O[C@H]2n1cnc2c(N)ncnc21` (stereo not given in full), for which the solubility (kinetic) was greater than 46.1 µg/mL.
For the compound `Cc1cc(Br)ccc1NC(=S)N1CCOCC1`, the solubility (kinetic) was greater than 47.3 µg/mL.
Consider `COc1cc(C)ccc1OCC(=O)NC1CCCCCC1`, for which the solubility (kinetic) came to 40.5 µg/mL (≈ 139 µM).
For `CN1CCCC(C(=O)c2ccc(-c3ccccc3)cc2)C1` (stereo not given) the value was 27.3 µg/mL (≈ 97.7 µM); for `CCc1cccc(C)c1N1C(=O)CC(C)(C)CC1=O`, greater than 38.9 µg/mL; for `CSc1ccccc1NC(=O)COC(=O)CCC(=O)c1ccc(F)cc1`, greater than 56.3 µg/mL.
For `COc1ccc2nc3oc(C(=O)NCCCOC(C)C)cc3cc2c1`, the solubility (kinetic) was found to be 12 µg/mL (≈ 35 µM).
`CSc1ncccc1C(=O)Nc1cccc(S(=O)(=O)N2CCCCCC2)c1` showed a kinetic solubility of 11.2 µg/mL (≈ 27.6 µM).
For the compound `CC(Cc1ccccc1)C(=O)Nc1ccc(Br)cc1` (stereo not given), the kinetic solubility came to 3.2 µg/mL (≈ 10.1 µM).
Take `COc1ccccc1NC(=S)N1CCCCCC1`: the solubility (kinetic) was greater than 39.7 µg/mL.
For `CC(=O)NN1C(=O)c2ccccc2NC1c1ccc([N+](=O)[O-])o1` (stereo not given) the value was greater than 47.4 µg/mL.
For `C=CCNC(=O)COc1ccc(S(=O)(=O)N2CCCC2)cc1`, the solubility (kinetic) is greater than 48.7 µg/mL.
Turning to `CNc1nc(N)c(C(=O)Nc2cc(C)on2)s1`, the solubility (kinetic) is 35.4 µg/mL (≈ 140 µM).
`CCN(CC)C(=S)Nc1ccc(C(=O)OC)cc1` returned a kinetic solubility greater than 40 µg/mL.
As to `CC1CC(C)CN(CC(=O)c2cccs2)C1` (stereo not given), the kinetic solubility worked out at 30.8 µg/mL (≈ 130 µM).
For the compound `Cc1cccc(NC(=O)C2C3CCCCC32)c1` (stereo not given), the kinetic solubility is 3 µg/mL (≈ 13.1 µM).
For `O=C(CN1CCCCCC1)NCC1CCCO1.O=C(O)C(=O)O` (stereo not given) the value was greater than 49.6 µg/mL.
Regarding `CCOc1cc(C=O)ccc1OCc1cc(=O)n2cc(C)ccc2n1`, the solubility (kinetic) amounted to 4.4 µg/mL (≈ 13 µM).
For `COc1ccc(S(=O)(=O)N2CCOCC2)cc1NC(=O)CN1C(=O)CN(C)C1=O` the value was greater than 64 µg/mL; for `Cc1noc(C)c1CNCc1ccccc1.O=C(O)C(=O)O`, greater than 45.9 µg/mL.
For `Cc1noc(NS(=O)(=O)c2ccc(NC(=O)C(C)C)cc2)c1C` the value was greater than 50.6 µg/mL; for `O=C(Nc1sc2c(c1C(=O)O)CCC2)C(=O)N1CCOCC1`, greater than 48.7 µg/mL.
`CC(=O)N1CCc2cc(S(=O)(=O)N3CCCCC3C)ccc21` (stereo not given) registered a kinetic solubility of 9.4 µg/mL (≈ 29.2 µM).
For `COc1ccc2c(c1)C=C(CN1CCN(C(C)C)C(CCO)C1)CO2` (stereo not given) the value was 34.5 µg/mL (≈ 99.6 µM); for `O=C1NN=C(c2ccccc2)CC1c1c[nH]c2ccccc12` (stereo not given), greater than 43.4 µg/mL.
For the compound `O=C(CCC(=O)N1CCc2ccccc2C1)NCCc1ccc(Cl)cc1`, the solubility (kinetic) is greater than 55.6 µg/mL.
In turn, `O=C(Nc1ccon1)c1ccc(S(=O)(=O)N2CCOCC2)cc1` returned a kinetic solubility of 47.4 µg/mL (≈ 141 µM).
`CS(=O)(=O)c1ccc2nc(NC(=O)CN3CCOCC3)sc2c1` had a kinetic solubility of 40.6 µg/mL (≈ 114 µM).
For `Cc1ccc2ccccc2c1NC(=O)c1ccco1` the value was greater than 37.7 µg/mL; for `COc1ccc(C(=O)NC(C)CCc2ccccc2)c(OC)c1` (stereo not given), 41.5 µg/mL (≈ 132 µM); for `Cc1cc(NS(=O)(=O)c2ccc(C(C)C)cc2)no1`, 40.2 µg/mL (≈ 143 µM).
The compound `Cc1cc(OC(C)C(=O)Nc2cccnc2)ccc1Cl` (stereo not given) gave a solubility (kinetic) of 35.8 µg/mL (≈ 123 µM).
`COC(=O)c1c(C)oc(C)c1S(=O)(=O)NC(C)(C)C` showed a solubility (kinetic) greater than 43.4 µg/mL.
With `C/C(=N\OC(=O)Nc1ccccc1)c1ccc(C)cc1`, the kinetic solubility worked out at 15 µg/mL (≈ 55.9 µM).
With `COc1cc(CNc2ncnc3c2[nH]c2ccc(C)cc23)cc(OC)c1`, the solubility (kinetic) came out at 0.7 µg/mL (≈ 2.01 µM).
The compound `Fc1ccc(CNc2ccc(N3CCN(Cc4ccccc4)CC3)cc2)cc1` yielded a solubility (kinetic) of 14.6 µg/mL (≈ 38.9 µM).
In the case of `Cc1cccc(NC(=O)c2cc3ccccc3nc2C)c1`, the kinetic solubility stood at 29.3 µg/mL (≈ 106 µM).
For `O=C(Nc1ccccc1)OCC1CCCO1` (stereo not given) the value was greater than 33.2 µg/mL.
Regarding `CCOc1cc(Cl)c(CNCCCN2CCOCC2)cc1OC`, the kinetic solubility is greater than 51.4 µg/mL.
`Cn1c(C2CCCCC2)nc2ccccc21` showed a kinetic solubility greater than 32.1 µg/mL.
Take `Cc1nc(N)nc(N/N=C/c2ccccc2)n1`: the solubility (kinetic) was greater than 34.2 µg/mL.
For `O=C1CN(C(=O)c2ccc(F)cc2)c2ccccc2N1` the value was greater than 40.5 µg/mL.
For `O=c1cc(O)c2sc(Nc3cccc(C(F)(F)F)c3)nc2[nH]1` the value was 36.9 µg/mL (≈ 113 µM).
Turning to `COc1ccc2c(c1)CC(=O)NC=C2`, the kinetic solubility was greater than 28.4 µg/mL.
In the case of `CCc1cccc2c(C(=O)C(NCCOC)c3ccccc3)c[nH]c12` (stereo not given), the kinetic solubility is greater than 50.5 µg/mL.
For `CCCCOc1ccc(C(=O)Nc2ccc(CN3CCOCC3)cc2)cc1` the value was 1.1 µg/mL (≈ 2.99 µM).
`O=C(/C=C/c1ccc([N+](=O)[O-])cc1)c1cccs1`: the solubility (kinetic) turned out to be 1.6 µg/mL (≈ 6.17 µM).
`FCCCOc1ccc(CN2CCN(c3ccccc3F)CC2)cc1` displayed a solubility (kinetic) of 19.5 µg/mL (≈ 56.3 µM).
In turn, `O=C1Nc2ccccc2C(=O)N2CCCCC12` (stereo not given) came in with a solubility (kinetic) of 19.3 µg/mL (≈ 83.8 µM).
Turning to `CC1CCCN1CC#CC(O)(c1ccccc1)c1ccccc1.Cl` (stereo not given), the solubility (kinetic) was 46.9 µg/mL.
As to `COc1ccccc1C(=O)NCCOc1ccc(C(C)(C)C)cc1`, the solubility (kinetic) came out at 2.7 µg/mL (≈ 8.25 µM).

Usually solubility (kinetic) stands for the concentration staying in solution when a stock, usually in DMSO, is diluted into the medium.

These data come from PubChem BioAssay AID1996.
